One assay deals with MCF7 cells. Nature of the assay: Confocal immunofluorescence scoring of asymmetrically dividing and G0-like (H3K9me2low/MCM2low/HES1high) cells. The format is cell-based, human. The note with it: for frequency of asymmetrically dividing and G0-like cells / frequency of G0-like cells: MCF7; for frequency of asymmetrically dividing and G0-like cells: small molecule for 72 h at the single dose (low, non-antiproliferative or target-suppressing), vs DMSO control; for production of G0-like cells: wild-type MCF7, target-suppressing doses, 72 hours or 144 hours; for frequency of G0-like cells: proteasome inhibitor for 24 h (Bortezomib 4 μM, MG-132 10 μM), doses that do not affect overall cell proliferation. Here is the method:
(§1) Drug treatment in vitro. Cells were seeded onto collagen IV-coated coverslips, allowed to attach overnight, and treated with vehicle (DMSO) or AKT1/2 inhibitor (HCT116: 20μM; MCF7: 2 μM) (Sigma), MK2206 (HCT116: 10 μM; MCF7: 3 μM) (Selleck Chemicals), TORIN1 (HCT116: 0.5 μM; MCF7: 0.25 μM) (Tocris Bioscience), AZD8055 (HCT116: 0.7 μM; MCF7: 0.1 μM) (Selleck Chemicals), INK128 (HCT116: 0.05 μM; MCF7: 0.01 μM) (Active Biochem), Palomid 529 (HCT116: 10 μM; MCF7: 20 μM) (Selleck Chemicals), (Rapamycin (HCT116: 20 μM; MCF7: 20 μM)(Sigma), RAD-001 (HCT116: 10 μM; MCF7: 5 μM) (Selleck Chemicals), (AZD5363 (HCT116: 50 μM; MCF7: 5 μM) (Active Biochem), GDC0068 (HCT116: 50 μM; MCF7: 5 μM) (Active Biochem) for 72 h and Bortezemib (HCT116: 1 μM; MCF7: 4 μM) (Selleck Chemicals) MG-132 (vehicle: ethanol) (HCT116: 1 μM; MCF7: 10 μM), for 24 h.
(§2) Immunofluorescence staining. For bulk populations and for colonies, cells were grown directly on collagen IV-coated coverslips (Sigma). Cells were fixed in 3.7% formalin, permeabilized using 0.1% Triton X-100, and treated with 0.1% SDS. They were blocked in 1% BSA and then incubated with primary antibody (α-H3K9me2 (Abcam); α-MCM2 and α-Tubulin (Cell Signaling), α-Hes1 and α-TTC3 (Abnova)) diluted in blocking solution, washed, and incubated with the respective secondary antibody. Cells were mounted using hard-set mounting media containing DAPI (Vector Laboratories). All secondary antibodies were Alexa Fluor conjugates (488, 555, 568, 633, and 647) (Invitrogen). Immunofluorescence imaging (on a Nikon Eclipse Ti A1R-A1 confocal microscope) and live-cell imaging (on the Nikon Biostation CT platform) were performed as previously described (1).
(§3) Drug treatment in vitro. Cells were seeded onto collagen IV-coated coverslips, allowed to attach overnight, and treated with vehicle (DMSO) or AKT1/2 inhibitor (HCT116: 20 μM; MCF7: 2 μM) (Sigma), MK2206 (HCT116: 10 μM; MCF7: 3 μM) (Selleck Chemicals), TORIN1 (HCT116: 0.5 μM; MCF7: 0.25 μM) (Tocris Bioscience), AZD8055 (HCT116: 0.7 μM; MCF7: 0.1 μM) (Selleck Chemicals), INK128 (HCT116: 0.05 μM; MCF7: 0.01 μM) (Active Biochem), Palomid 529 (HCT116: 10 μM; MCF7: 20 μM) (Selleck Chemicals), (Rapamycin (HCT116: 20 μM; MCF7: 20 μM)(Sigma), RAD-001 (HCT116: 10 μM; MCF7: 5 μM) (Selleck Chemicals), BKM-120 (HCT116: 1.5 μM; MCF7: 0.5 μM) (Active Biochem), FAK inhibitors (PF-562271: 1 μM Pfizer) and NVP-TAE226 : 1 μM (Novartis), for both cell lines) for 72 h and Bortezemib (HCT116: 1 μM; MCF7: 4 μM) (Selleck Chemicals) MG-132 (vehicle: ethanol) (HCT116: 1 μM; MCF7: 10 μM), for 24 h.
as §2, with “(a-H3K9me2” for “(α-H3K9me2”, “A1R-A1™” for “A1R-A1”, “described7. Slides coated with Type-I collagen (control) and AlignCol™ woven with large collagen fibers (100-200 nm) (Advanced Biomatrix) were incubated for 1 hour in 70% ethanol and then washed with PBS. Cells were then plated on the slides and processed for immunofluorescence.” for “described (1).”
(§4) Antibody activation and inhibition. […]

The test system of the next assay is HCT116 cells. The description is as above. The class given is cell-based, human. The note with it: for frequency of asymmetrically dividing and G0-like cells / frequency of G0-like cells: HCT116; for frequency of asymmetrically dividing and G0-like cells: small molecule for 72 h at the single dose (low, non-antiproliferative or target-suppressing), vs DMSO control; for production of G0-like cells: wild-type HCT116, target-suppressing doses, 72 hours or 144 hours; for frequency of G0-like cells: proteasome inhibitor 1 μM for 24 h, doses that do not affect overall cell proliferation. Here is the method: as §1, §2, §3
as §2, with “(a-H3K9me2” for “(α-H3K9me2”, “A1R-A1™” for “A1R-A1”, “described7. Slides coated with Type-I collagen (control) and AlignCol™ woven with large collagen fibers (100-200 nm) (Advanced Biomatrix) were incubated for 1 hour in 70% ethanol and then washed with PBS. Cells were then plated on the slides and processed for immunofluorescence.” for “described (1).”
as §4

Entries after “also recorded” stand apart in the source; their conditions may differ. Where a SMILES comes first, the peptide text is derived from it. The star is where a group is joined. Cbz = O=C(OCc1ccccc1)*

Experimental findings from US20190049436A1, “MODULATION OF ASYMMETRIC PROLIFERATION” (THE GENERAL HOSPITAL CORPORATION, priority 2012, published 2019) are described below.

`COc1ccc(-c2ccc3c(N4CCOC[C@@H]4C)nc(N4CCOC[C@@H]4C)nc3n2)cc1CO` [AZD8055]: the “frequency of asymmetrically dividing and G0-like cells” value in the assay on MCF7 cells and in the assay on HCT116 cells was “significantly reduced” throughout.
Turning to `Nc1cc(C(F)(F)F)c(-c2cc(N3CCOCC3)nc(N3CCOCC3)n2)cn1` [BKM-120], the “frequency of asymmetrically dividing and G0-like cells” value in the assay on MCF7 cells and in the assay with HCT116 cells was “not suppressed” throughout. Moreover, the “production of G0-like cells” value in the assay on MCF7 cells and in the assay on HCT116 cells was “not suppressed” in each case.
Regarding `CC(C)C[C@H](NC(=O)[C@H](Cc1ccccc1)NC(=O)c1cnccn1)B(O)O` [Bortezomib], the “frequency of G0-like cells” value is “significantly reduced” in the assay with MCF7 cells, “reduced” in the assay on MCF7 cells (listed as bortezomib), “significantly reduced” in the assay with HCT116 cells and “reduced” with HCT116 cells (listed as bortezomib).
Regarding `CC(C)NC[C@@H](C(=O)N1CCN(c2ncnc3c2[C@H](C)C[C@H]3O)CC1)c1ccc(Cl)cc1` [GDC0068], the “frequency of asymmetrically dividing and G0-like cells” value with MCF7 cells and with HCT116 cells was “did not reduce” in each case.
As for `CC(C)n1nc(-c2ccc3oc(N)nc3c2)c2c(N)ncnc21` [INK-128], the “frequency of asymmetrically dividing and G0-like cells” value with MCF7 cells and in the assay on HCT116 cells was “significantly reduced” in each case.
For `CC(C)C[C@@H](C=O)NC(=O)[C@H](CC(C)C)NC(=O)[C@H](CC(C)C)NC(=O)OCc1ccccc1` [MG-132] (Cbz-Leu-Leu-Leu-aldehyde), the “frequency of G0-like cells” value with MCF7 cells and with HCT116 cells was “significantly reduced” throughout.
For the molecule `NC1(c2ccc(-c3nc4ccn5c(=O)[nH]nc5c4cc3-c3ccccc3)cc2)CCC1` [MK2206], the “frequency of asymmetrically dividing and G0-like cells” value in the assay on MCF7 cells and in the assay on HCT116 cells was “dramatically increases” in each case.
Consider `CNC(=O)c1ccccc1Nc1nc(Nc2ccc(N3CCOCC3)cc2OC)ncc1Cl` [NVP-TAE226], for which the “frequency of asymmetrically dividing and G0-like cells” value in the assay on MCF7 cells and in the assay on HCT116 cells was “increased” throughout.
As for `CN(c1ncccc1CNc1nc(Nc2ccc3c(c2)CC(=O)N3)ncc1C(F)(F)F)S(C)(=O)=O` [PF-562271], the “frequency of asymmetrically dividing and G0-like cells” value in the assay with MCF7 cells and in the assay on HCT116 cells was “increased” throughout.
For the molecule `COc1ccc(COc2cc3oc(=O)c4cc(C(C)O)ccc4c3cc2OC)cc1` (centres unmarked) [Palomid-529], the “frequency of asymmetrically dividing and G0-like cells” value in the assay with MCF7 cells and in the assay on HCT116 cells was “significantly reduced” each time.
With `CO[C@H]1C[C@@H]2CC[C@@H](C)[C@@](O)(O2)C(=O)C(=O)N2CCCC[C@H]2C(=O)O[C@H]([C@H](C)C[C@@H]2CC[C@@H](OCCO)[C@H](OC)C2)CC(=O)[C@H](C)/C=C(\C)[C@@H](O)[C@@H](OC)C(=O)[C@H](C)C[C@H](C)/C=C/C=C/C=C/1C` [RAD-001], in the assay with MCF7 cells, the “frequency of asymmetrically dividing and G0-like cells” value is “did not suppress; also recorded: not suppressed”; the “production of G0-like cells” value is on record as “not suppressed”. Besides, in the assay with HCT116 cells, the “frequency of asymmetrically dividing and G0-like cells” value is “did not suppress; also recorded: not suppressed”; the “production of G0-like cells” value is reported as “not suppressed”.
With `CCC(=O)N1CCN(c2ccc(-n3c(=O)ccc4cnc5ccc(-c6cnc7ccccc7c6)cc5c43)cc2C(F)(F)F)CC1` [TORIN1], the “frequency of asymmetrically dividing and G0-like cells” value in the assay on MCF7 cells and with HCT116 cells was “significantly reduced” in each case.
In the case of AZD5363, the “frequency of asymmetrically dividing and G0-like cells” value with MCF7 cells and in the assay on HCT116 cells was “did not reduce” each time.
